Measured values taken from patent US11292803B2, “Bioreducible N-oxide-based probes for imaging of hypoxia” (THE BOARD OF TRUSTEES OF THE UNIVERSITY OF ILLINOIS, priority 2018, dated 2022).

How the values were obtained:
[1] = Photophysical characterization (absorbance, emission, extinction coefficient, quantum yield); type: physicochemical
[2] = tested on: 4T1 cells; assay: Ratiometric fluorescence of cells, IVIS Spectrum; type: cell-based, murine; conditions: hypoxic 4T1 cells
Experimental: Ratiometric fluorescence imaging was also performed on 4T1 cells cultured in 6-well plates using an IVIS Spectrum imaging system. Cells were stained with a 5 μM solution of HyP-1 and incubated in either normoxic or hypoxic conditions for 4 hours (FIG. 5c). […] To further verify the in vitro results and determine the cellular factors responsible for HyP-1 reduction, cells were also stained with HyP-1 solutions containing either BIPY or DPI at multiple concentrations and incubated under hypoxic conditions.
Authenticated 4T1 cells were purchased from ATCC. Cells were grown in RPMI 1640 medium supplemented with 10% fetal bovine serum. Cells were cultured at 37° C. in 5% CO2 and 20% 02 for normoxic conditions. Hypoxic cell culture was performed by incubating cells in a sealed container with a Mitsubishi AnaeroPack™ anaerobic gas generator. Hypoxic conditions were verified with the use of a Mitsubishi RT Anaero-Indicator.
For cellular imaging using the IVIS Spectrum imaging system, cells were plated in a 6-well plate at an initial density of 1.7×10^4 cells/mL and allowed to grow until 60-80% confluent (approximately 3 days). Media was removed and cells were washed with PBS. A […] solution of HyP-1 in serum-free medium was added, and cells were incubated under normoxic or hypoxic conditions for 4 hours. For BIPY and DPI experiments, the staining solution was supplemented with the compound at the appropriate concentration, and ratiometric turn-on was reported relative to a vehicle control. Images were obtained using excitation and emission filter sets of 675/720 nm and 745/800 nm. Regions of interest (ROIs) were drawn around cell-containing wells, and ratiometric signal was calculated by determining the ratio of radiant efficiency corresponding to 800 nm and 720 nm emissions.

[3] = tested on: ischemic hindlimb tissue; assay: In vivo fluorescence imaging of hindlimb ischemia model; parameters: species or system BALB/c mice; conditions: 5 mM co-administered, ischemic hindlimb
Experimental: To visualize the response of HyP-1 in a model of rapidly developing hypoxia, a murine hindlimb ischemia model of peripheral artery disease was employed. Ischemia was induced in the right hindlimb of BALB/c mice via ligation of the femoral artery. […] After a 1-hour recovery period, HyP-1 (50 μL, 50 μM) was administered via intramuscular injection into both hindlimbs of the mouse. To visualize the time-dependent response of HyP-1 in the ischemic and non-ischemic tissue, ratiometric fluorescence imaging was performed over the course of 1 hour immediately following injection. […]
All in vivo imaging experiments were performed with the approval of the Institutional Animal Care and Use Committee of the University of Illinois at Urbana-Champaign, following the principles outlined by the American Physiological Society on research animal use. […] Animals that underwent unsuccessful surgery as determined by laser Doppler perfusion imaging were excluded from analysis.
Images were obtained using epi-fluorescence with excitation filters of 675 and 745 and corresponding emission filters of 720 and 800, respectively. […] ROIs of equal area were drawn around signals, and the total radiant efficiency in each ROI was determined. Ratiometric signal was calculated by determining the ratio of radiant efficiency corresponding to 800 nm and 720 nm emissions.

[4] = tested on: CYP450-rich rat liver microsomes
Experimental: FIG. 4. […] (a) Representative PA image (770 nm) of reaction mixtures incubated under normoxic or hypoxic conditions for 2 h, then quenched with an equal volume of acetonitrile. Dashed lines indicate positioning of FEP tubes. (b) Change in PA signal (770 nm) produced after 2 h incubation of HyP-1 (10 μM) with rat liver microsomes (RLM) (200 μg/mL) and NADPH (50 μM) in normoxic and hypoxic conditions (n=3). (c) Ratiometric fluorescence turn-on after 2 h incubation of HyP-1 (2 μM) with RLM ([…]) and NADPH (50 μM) in normoxic or hypoxic conditions (n=3). (d) Normalized fluorescent turn-on after 1 h hypoxic incubation of HyP-1 (2 μM) with RLM (100 μg/mL) and NADPH (50 μM) under various conditions. Statistical significance represents a comparison to the hypoxic control (n=6). Results with error bars are represented as mean±SD. **p<0.01, ***p<0.001, ****p<0.0001.
The responsiveness of HyP-1 to hypoxia was first evaluated in vitro via fluorescence by incubating HyP-1 with CYP450-rich rat liver microsomes under atmospheric (normoxic) and oxygen-deprived (hypoxic) conditions. […] The PA response of HyP-1 under identical conditions was evaluated by quenching the reaction mixtures with an equal volume of acetonitrile and transferring the solutions into fluorinated ethylene propylene (FEP) tubes, which were inserted into the centre of a 2 cm thick agarose-based tissue-mimicking phantom.
For hypoxic assays only, cuvettes were sealed with septa, then evacuated and filled with N2 (×3) prior to use. Potassium phosphate buffer (0.1 M, pH 7.4) and NADPH (0.5 mM) were degassed with N2 for 30 minutes. For all assays, phosphate buffer (889 μL) rat liver microsomes (200 μg/mL) and HyP-1 (1 μL, 2 mM in DMSO) were added to the cuvette and pre-incubated at 37° C. for 5 minutes. NADPH (100 μL) was added and incubation continued with fluorescence spectra acquisition occurring at the indicated time points. Spectra were acquired according to the following parameters: λex=672, emission range=685-800 nm and λex=750, emission range=760-900 nm. For BIPY and DPI experiments, the compounds were added from stock solutions (1 M BIPY in DMSO and 50 mM DPI in deionized water) following the 5 minute preincubation, and the buffer volume was adjusted such that the total volume in the cuvette was equal to 1 mL. Deactivated microsomes were prepared by heating in a 45° C. water bath for 30 minutes.

Row | SMILES | Φ ([1]; Table 2) | ε ([1]; Table 2) | λabs ([1]; Table 2) [nm] | also measured
1 | [O-][N+]1(c2ccc(-c3cc(-c4ccccc4)c4n3[B-](F)(F)[N+]3=C(c5ccc(N6CCOCC6)cc5)C=C(c5ccccc5)C3=N4)cc2)CCOCC1 [rHyP-5] | 0.049 | 9.2 × 10^4 M^−1 · cm^1 | 718 | 
2 | CN(C)c1ccc(C2=[N+]3C(=Nc4c(-c5ccccc5)cc(-c5ccc(N(C)C)cc5)n4[B-]3(F)F)C(c3ccccc3)=C2)cc1 [red-rHyP-2] | 0.023 | 8.2 × 10^4 M^−1 · cm^1 | 798 | 
3 | [O-][N+]1(c2ccc(-c3cc(-c4ccccc4)c4n3[B-](F)(F)[N+]3=C(c5ccc(N6CCCCC6)cc5)C=C(c5ccccc5)C3=N4)cc2)CCCCC1 [rHyP-4] | 0.011 | 9.1 × 10^4 M^−1 · cm^1 | 748 | 
4 | CN(C)c1ccc(C2=[N+]3C(=Nc4c(-c5ccccc5)cc(-c5ccc([N+](C)(C)[O-])cc5)n4[B-]3(F)F)C(c3ccccc3)=C2)cc1 [rHyP-2] | 0.021 | 4.6 × 10^4 M^−1 · cm^1 | 738 | 
5 | F[B-]1(F)n2c(-c3ccc(N4CCCCC4)cc3)cc(-c3ccccc3)c2N=C2C(c3ccccc3)=CC(c3ccc(N4CCCCC4)cc3)=[N+]21 [red-rHyP-4] | 0.017 | 7.6 × 10^4 M^−1 · cm^1 | 787 | 
6 | CCN(CC)c1ccc(C2=[N+]3C(=Nc4c(-c5ccccc5)cc(-c5ccc([N+]([O-])(CC)CC)cc5)n4[B-]3(F)F)C(c3ccccc3)=C2)cc1 [rHyP-1, 4-(7-(4-(diethylamino)phenyl)-5,5-difluoro-1,9-diphenyl-5H-5λ^4,6λ^4-dipyrrolo[1,2-c:2′,1′-f][1,3,5,2]triazaborinin-3-yl)-N,N-diethylaniline oxide] | 0.013 | 5.8 × 10^4 M^−1 · cm^1 | 749 | 
7 | c1ccc(-c2ccccn2)nc1 [BIPY, 2,2′-bipyridine, reference compound] |  |  |  | effect on cellular response to HyP-1 ([2]; 1 mM): no effect; effect on ratiometric fluorescence of HyP-1 in cells ([2]; 5 mM): only slight reduction; ratiometric fluorescence enhancement with co-administration versus HyP-1 alone [3]: statistically indistinguishable; effect on HyP-1 turn-on response / reduction by rat liver microsomes [4]: no significant inhibition
8 | [Cl-].c1ccc([I+]c2ccccc2)cc1 [DPI, diphenyliodonium chloride, reference compound] |  |  |  | inhibition of HyP-1 ratiometric fluorescence in cells ([2]; multiple concentrations (100, 500 μM)): significant dose-dependent inhibition; effect on HyP-1 turn-on response / reduction by rat liver microsomes [4]: inhibition of HyP-1 reduction was achieved
9 | CCN(CC)c1ccc(-c2cc(-c3ccccc3)c3n2[B-](F)(F)[N+]2=C(c4ccccc4)C=C(c4ccccc4)C2=N3)cc1 [red-HyP-650, 4-(5,5-difluoro-1,7,9-triphenyl-5H-54,64-dipyrrolo[1,2-c:2′,1′-f][1,3,5,2]triazaborinin-3-yl)-N,N-diethylaniline] |  |  |  | Φ (fluorescence quantum yield) ([1]; in CHCl3 (Table 3)): 0.069; ε ([1]; in CHCl3 (Table 3)): 8.1 × 10^4 M^−1 · cm^1; λabs ([1]; in CHCl3 (Table 3)): 740 nm
10 | CCCN(CCC)c1ccc(C2=[N+]3C(=Nc4c(-c5ccccc5)cc(-c5ccc([N+]([O-])(CCC)CCC)cc5)n4[B-]3(F)F)C(c3ccccc3)=C2)cc1 [rHyP-3] | 0.013 | 8.0 × 10^4 M^−1 · cm^1 | 747 | 
11 | CCN(CC)c1ccc(C2=[N+]3C(=Nc4c(-c5ccccc5)cc(-c5ccc(N(CC)CC)cc5)n4[B-]3(F)F)C(c3ccccc3)=C2)cc1 [red-rHyP-1, 4,4′-(5,5-difluoro-1,9-diphenyl-5H-4λ^4,5λ^4-dipyrrolo[1,2-c:2′,1′-f][1,3,5,2]triazaborinine-3,7-diyl)bis(N,N-diethylaniline)] | 0.013 | 9.9 × 10^4 M^−1 · cm^1 | 818 | 
12 | CCCN(CCC)c1ccc(C2=[N+]3C(=Nc4c(-c5ccccc5)cc(-c5ccc(N(CCC)CCC)cc5)n4[B-]3(F)F)C(c3ccccc3)=C2)cc1 [red-rHyP-3] | 0.010 | 9.3 × 10^4 M^−1 · cm^1 | 826 | 
13 | CC[N+]([O-])(CC)c1ccc(-c2cc(-c3ccccc3)c3n2[B-](F)(F)[N+]2=C(c4ccccc4)C=C(c4ccccc4)C2=N3)cc1 [HyP-650, 4-(5,5-difluoro-1,7,9-triphenyl-5H-54,64-dipyrrolo[1,2-c:2′,1′-f][1,3,5,2]triazaborinin-3-yl)-N,N-diethylaniline oxide] |  |  |  | Φ (fluorescence quantum yield) ([1]; in CHCl3 (Table 3)): 0.027; ε ([1]; in CHCl3 (Table 3)): 4.0 × 10^4 M^−1 · cm^1; λabs ([1]; in CHCl3 (Table 3)): 650 nm
14 | F[B-]1(F)n2c(-c3ccc(N4CCOCC4)cc3)cc(-c3ccccc3)c2N=C2C(c3ccccc3)=CC(c3ccc(N4CCOCC4)cc3)=[N+]21 [red-rHyP-5] | 0.085 | 7.6 × 10^4 M^−1 · cm^1 | 758 | 
